pIC50: −log10 of the molar value. Where a name gives a salt, the structure may show the parent alone. Read-outs that look alike come from different tables or passages of the source.
Target: T1, DYRK2 kinase (Homo sapiens, UniProt Q92630)
T1 sequence (Q92630 1-601): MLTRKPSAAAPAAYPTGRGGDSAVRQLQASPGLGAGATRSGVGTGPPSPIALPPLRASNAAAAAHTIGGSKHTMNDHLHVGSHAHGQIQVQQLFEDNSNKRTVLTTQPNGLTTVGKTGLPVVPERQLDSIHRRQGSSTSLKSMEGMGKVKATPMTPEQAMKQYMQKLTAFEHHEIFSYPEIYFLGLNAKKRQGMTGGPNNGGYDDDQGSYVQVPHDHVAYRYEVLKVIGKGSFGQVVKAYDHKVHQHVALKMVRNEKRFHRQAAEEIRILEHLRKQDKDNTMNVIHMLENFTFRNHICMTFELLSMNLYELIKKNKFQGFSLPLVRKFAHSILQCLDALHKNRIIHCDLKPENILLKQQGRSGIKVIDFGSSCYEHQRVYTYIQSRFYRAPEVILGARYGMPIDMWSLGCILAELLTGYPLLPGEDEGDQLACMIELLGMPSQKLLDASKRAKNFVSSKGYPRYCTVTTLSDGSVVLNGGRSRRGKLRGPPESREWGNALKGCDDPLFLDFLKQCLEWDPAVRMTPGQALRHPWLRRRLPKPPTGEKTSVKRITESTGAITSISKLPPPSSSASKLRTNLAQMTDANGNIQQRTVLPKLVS
Test: DYRK2 kinase activity analysis assay (33P-ATP, DYRKtide substrate, P81 filter paper)
Assay type: biochemical
Settings: 2 hours at room temperature; for pIC50: read-out: IC50; for IC50: IC50 (nM)

O=C(c1ccc(Nc2nccc(-c3ccc4scnc4c3)n2)nc1)N1CCNCC1 [Example 11, (6-((4-(benzothiazole-5-yl)pyrimidine-2-yl)amino)pyridine-3-yl)(piperazine-1-yl)ketone hydrochloride]
pIC50: 6.72

CC(C)(C)OC(=O)N1CCN(c2ccc(Nc3ncc(F)c(-c4ccc5scnc5c4)n3)cn2)CC1 [Example 25, tert-butyl 4-(5-((4-(benzothiazole-5-yl)-5-fluoropyrimidine-2-yl)amino)pyridine-2-yl)piperazine-1-carboxylate]
pIC50: 7.80

CCN1CCN(C(=O)c2ccc(Nc3ncc(F)c(-c4ccc5scnc5c4)n3)nc2)CC1 [Example 14, (6-((4-(benzothiazole-5-yl)-5-fluoropyrimidine-2-yl)amino)pyridine-3-yl)(4-ethylpiperazine-1-yl)ketone]
pIC50: 7.66

Cc1cnc(Nc2ccc(CN3CCNCC3)cn2)nc1-c1ccc2scnc2c1 [Example 2, hydrochloride]
pIC50: 5.85

CN(C)c1nc2cc(-c3nc(Nc4ccc(C(=O)N5CCN(C(=O)OC(C)(C)C)CC5)nc4)ncc3F)ccc2s1 [Example 31]
IC50: 590 nM

Cc1cnc(Nc2ccc(CN3CCN(C(C)C)CC3)cn2)nc1-c1ccc2scnc2c1 [Example 1, 4-(benzothiazole-5-yl)-N-(5-((4-isopropylpiperazine-1-yl)methyl)pyridine-2-yl)-5-methylpyri midine-2-amine]
pIC50: 5.83

CCN1CCN(Cc2ccc(Nc3ncc(F)c(-c4ccc5scnc5c4)n3)nc2)CC1 [Example 12]
pIC50: 6.37

CC(C)(C)OC(=O)N1CCN(C(=O)c2ccc(Nc3ncc(F)c(-c4ccc5scnc5c4)n3)nc2)CC1 [Example 19, tert-butyl 4-(6-((4-(benzothiazole-5-yl)-5-fluoropyrimidine-2-yl)amino)nicotinoyl)piperazine-1-carboxylate]
pIC50: 7.15

CC(C)(C)OC(=O)N1CCN(C(=O)c2ccc(Nc3nccc(-c4ccc5scnc5c4)n3)nc2)CC1 [Example 10, tert-butyl 4-(6-((4-(benzothiazole-5-yl)pyrimidine-2-yl)amino)nicotinoyl)piperazine-1-carboxylate]
pIC50: 7.00

COc1cnc(Nc2ccc(CN3CCNCC3)cn2)nc1-c1ccc2scnc2c1 [Example 7, 4-(benzothiazole-5-yl)-5-methoxy-N-(5-(piperazine-1-ylmethyl)pyridine-2-yl)pyrimidine-2-amine hydrochloride]
pIC50: 6.11

CC(C)(C)OC(=O)N1CCN(C(=O)c2cnc(Nc3ncc(F)c(-c4ccc5scnc5c4)n3)nc2)CC1 [Example 22, tert-butyl 4-(2-((4-(benzothiazole-5-yl)-5-fluoropyrimidine-2-yl)amino)pyrimidine-5-carbonyl)piperazine-1-c arboxylate]
pIC50: 6.27

Cc1cnc(Nc2ccc(C(=O)N3CCN(C(=O)OC(C)(C)C)CC3)cn2)nc1-c1ccc2scnc2c1 [Example 4, tert-butyl 4-(6-((4-(benzothiazole-5-yl)-5-methylpyrimidine-2-yl)amino)nicotinoyl)piperazine-1-carboxylate]
pIC50: 6.57

CCN1CCN(C(=O)c2ccc(Nc3ncc(F)c(-c4ccc5scnc5c4)n3)cn2)CC1 [Example 24, (5-((4-(benzothiazole-5-yl)-5-fluoropyrimidine-2-yl)amino)pyridine-2-yl)(4-ethylpiperazine-1-yl)ketone]
pIC50: 7.82

Cc1cnc(Nc2ccc(C(=O)N3CCNCC3)cn2)nc1-c1ccc2scnc2c1 [Example 5, (6-((4-(benzothiazole-5-yl)-5-methylpyrimidine-2-yl)amino)pyridine-3-yl)(piperazine-1-yl)ketone hydrochloride]
pIC50: 6.45

COc1cnc(Nc2ccc(C(=O)N3CCNCC3)cn2)nc1-c1ccc2scnc2c1 [Example 6, (6-((4-(benzothiazole-5-yl)-5-methoxypyrimidine-2-yl)amino)pyridine-3-yl)(piperazine-1-yl)k etone hydrochloride]
pIC50: 6.11

O=C(c1cnc(Nc2ncc(F)c(-c3ccc4scnc4c3)n2)nc1)N1CCNCC1 [Example 23, (2-((4-(benzothiazole-5-yl)-5-fluoropyrimidine-2-yl)amino)pyrimidine-5-yl)(piperazine-1-yl)k etone hydrochloride]
pIC50: 6.16

CN(C)c1nc2cc(-c3nc(Nc4ccc(C(=O)N5CCNCC5)cn4)ncc3F)ccc2s1 [Example 27, (6-((4-(2-(dimethylamino)benzothiazole-5-yl)-5-fluoropyrimidine-2-yl)amino)pyridine-3-yl)(piperazine-1-yl)ketone hydrochloride]
pIC50: 7.74

O=C(c1ccc(Nc2ncc(F)c(-c3ccc4scnc4c3)n2)cn1)N1CCNCC1 [Example 26, (5-((4-(benzothiazole-5-yl)-5-fluoropyrimidine-2-yl)amino)pyridine-2-yl)(piperazine-1-yl)ketone hydrochloride]
pIC50: 8.40

CCN(CC)c1nc2cc(-c3nc(Nc4ccc(C(=O)N5CCN(C(C)C)CC5)nc4)ncc3F)ccc2s1 [Example 34, (5-((4-(2-(diethylamino)benzothiazole-5-yl)-5-fluoropyrimidine-2-yl)amino)pyridine-2-yl)(4-isopropylpiperazine-1-yl)ketone]
pIC50: 7.35

CCN1CCN(C(=O)c2ccc(Nc3ncc(F)c(-c4ccc5sc(N(C)C)nc5c4)n3)cn2)CC1 [Example 29, (5-((4-(2-(dimethylamino)benzothiazole-5-yl)-5-fluoropyrimidine-2-yl)amino)pyridine-2-yl)(4-ethylpiperazine-1-yl)ketone]
pIC50: 7.96

c1cc(-c2ccc3scnc3c2)nc(Nc2ccc(CN3CCNCC3)cn2)n1 [Example 8, 4-(benzothiazole-5-yl)-N-(5-(piperazine-1-methylene)pyridine-2-yl)pyrimidine-2-amine hydrochloride]
pIC50: 6.20

CC(C)N1CCN(C(=O)c2ccc(Nc3ncc(F)c(-c4ccc5sc(N(C)C)nc5c4)n3)cn2)CC1 [Example 30, (5-((4-(2-(dimethylamino)benzothiazole-5-yl)-5-fluoropyrimidine-2-yl)amino)pyridine-2-yl)(4-isopropylpiperazine-1-yl)ketone]
pIC50: 7.89

CCN1CCN(C(=O)c2cnc(Nc3ncc(F)c(-c4ccc5scnc5c4)n3)nc2)CC1 [Example 21, (2-((4-(benzothiazole-5-yl)-5-fluoropyrimidine-2-yl)amino)pyrimidine-5-yl)(4-ethylpiperazine-1-yl)ketone]
pIC50: 5.98

Fc1cnc(Nc2ccc(CN3CCNCC3)cn2)nc1-c1ccc2scnc2c1 [Example 13, 4-(benzothiazole-5-yl)-5-fluoro-N-(5-(piperazine-1-methylene)pyridine-2-yl)pyrimidine-2-amine hydrochloride]
pIC50: 6.67

CCN1CCN(C(=O)c2ccc(Nc3nccc(-c4ccc5scnc5c4)n3)nc2)CC1 [Example 9, (6-((4-(benzothiazole-5-yl)pyrimidine-2-yl)amino)pyridine-3-yl)(4-ethylpiperazine-1-yl)ketone]
pIC50: 7.17

CCN1CCN(C(=O)c2ccc(Nc3ncc(C)c(-c4ccc5scnc5c4)n3)nc2)CC1 [Example 3, (6-((4-(benzothiazole-5-yl)-5-methylpyrimidine-2-yl)amino)pyridine-3-yl)(4-ethylpiperazine-1-yl)ketone]
pIC50: 6.30

CCN1CCN(C(=O)c2ccc(Nc3ncc(F)c(-c4ccc5sc(N(CC)CC)nc5c4)n3)cn2)CC1 [Example 33, (5-((4-(2-(diethylamino)benzothiazole-5-yl)-5-fluoropyrimidine-2-yl)amino)pyridine-2-yl)(4-ethylpiperazine-1-yl)ketone]
pIC50: 7.54

CN(C)c1nc2ccc(-c3nc(Nc4ccc(C(=O)N5CCN(c6ccccc6)CC5)cn4)ncc3F)cc2s1 [Example 37, (6-((4-(2-(dimethylamino)benzothiazole-6-yl)-5-fluoropyrimidine-2-yl)amino)pyridine-3-yl)(4 - arylpiperazine-1-yl)ketone]
IC50: 683 nM

CCN(CC)c1nc2cc(-c3nc(Nc4ccc(C(=O)N5CCNCC5)cn4)ncc3F)ccc2s1 [Example 28, (6-((4-(2-(diethylamino)benzothiazole-5-yl)-5-fluoropyrimidine-2-yl)amino)pyridine-3-yl)(piperazine-1-yl)ketone hydrochloride]
pIC50: 7.46

O=C(c1ccc(Nc2ncc(F)c(-c3ccc4scnc4c3)n2)nc1)N1CCN(c2ccccc2)CC1 [Example 17, (6-((4-(benzothiazole-5-yl)-5-fluoropyrimidine-2-yl)amino)pyridine-3-yl)(4-phenylpiperazine-1-yl)ketone]
pIC50: 7.25

CCOC(=O)N1CCN(C(=O)c2ccc(Nc3ncc(F)c(-c4ccc5nc(N(C)C)sc5c4)n3)nc2)CC1 [Example 38, ethyl 4-(6-((4-(2-(dimethylamino)benzothiazole-6-yl)-5-fluoropyrimidine-2-yl)amino)nicotinoyl)piperazine-1-carboxylate]
pIC50: 7.04

CN(C)c1nc2ccc(-c3nc(Nc4ccc(C(=O)N5CCN(C(=O)C6CC6)CC5)cn4)ncc3F)cc2s1 [Example 36]
IC50: 16 nM

CCOC(=O)N1CCN(C(=O)c2ccc(Nc3ncc(F)c(-c4ccc5scnc5c4)n3)nc2)CC1 [Example 18, ethyl 4-(6-((4-(benzothiazole-5-yl)-5-fluoropyrimidine-2-yl)amino)nicotinoyl) piperazine-1-carboxylate]
pIC50: 7.54
